The text below walks through data of ChEMBL document CHEMBL4483862, “Open-source discovery of chemical leads for next-generation chemoprotective antimalarials” (2018).

pIC50: −log10 of the molar value. Bounds are passed on as bounds.

In this assay the test system is Plasmodium berghei. The assay is described as follows: Luciferase/luciferin-expressing antifolate-resistant parasites were used to infect a culture of HepG2 cells that were pre-incubated with compounds. Infected hepatocytes emit light due to the luciferase reaction. Assay results are presented as the percent inhibition of light emission compared to control. […]. Type of assay: functional. To be noted: sporozoite; for IC90: read-out: LUCIFERASE INFECTION ASSAY - IC90.

The pIC50 is the IC50 on a negative log10 scale, so that one unit is a factor of ten. Broadly, the IC90 is the point of the concentration-response curve where the effect stands at 90%. On to `COc1ccc(CCNC(=S)NC(=O)c2c(-c3ccccc3Cl)noc2C)cc1OC`, for which the IC90 was above 7.17 µM. The pIC50 (PBLUC_HILL_SLOPE 1.8, PBLUC_R_SQUARED 0.103, read-out: LUCIFERASE INFECTION ASSAY - IC50) was below 5.14.
With `CC(=O)c1ccc(-c2ccc(C(=O)N3CCCc4ccccc43)o2)cc1`, the IC90 amounted to 0.942 µM. Also, the pIC50 (PBLUC_HILL_SLOPE 1.77, PBLUC_R_SQUARED 0.773, read-out: LUCIFERASE INFECTION ASSAY - IC50) is 6.57.
Take `CC(C)(C)Nc1ncnc2sc(-c3ccccc3)cc12`: the IC90 is above 10 µM. For the same compound, the pIC50 (PBLUC_HILL_SLOPE 1.75, PBLUC_R_SQUARED 0.697, read-out: LUCIFERASE INFECTION ASSAY - IC50) is 5.30.
For the compound `Cc1ccc(S(=O)(=O)Nc2cc(SCC(=O)O)c(O)c3ccccc23)cc1`, the IC90 was above 10 µM. For the same compound, the pIC50 (PBLUC_HILL_SLOPE 1.74, PBLUC_R_SQUARED 0.143, read-out: LUCIFERASE INFECTION ASSAY - IC50) is below 5.00.
In the case of `CCN(Cc1ccccc1)S(=O)(=O)c1ccc2c(c1)CCCN2C(C)=O`, the IC90 is above 10 µM. Moreover, the pIC50 (PBLUC_HILL_SLOPE 1.76, PBLUC_R_SQUARED 0.382, read-out: LUCIFERASE INFECTION ASSAY - IC50) was 5.06.
In the case of `CC(C)N1CCN(c2ccc(-c3cn4c(-c5ccc(O)cc5)cnc4cn3)cc2)CC1`, the IC90 was above 7.98 µM. The pIC50 (PBLUC_HILL_SLOPE 1.81, PBLUC_R_SQUARED 0.0513, read-out: LUCIFERASE INFECTION ASSAY - IC50) was below 5.10.
With `CN(C)c1ccc(-c2cnc3cnc(-c4ccc(CNc5ccccc5)cc4)cn23)cc1`, the IC90 is above 7.87 µM. For the setting “PBLUC_HILL_SLOPE 1.8, PBLUC_R_SQUARED 0.529, read-out: LUCIFERASE INFECTION ASSAY - IC50”, the pIC50 is 5.37.
In the case of `COc1cc(/C=N/NC(=O)c2ccccc2NS(=O)(=O)c2cccs2)ccc1OCCC(C)C`, the IC90 turned out to be 1.06 µM. Moreover, the pIC50 (PBLUC_HILL_SLOPE 1.78, PBLUC_R_SQUARED 0.852, read-out: LUCIFERASE INFECTION ASSAY - IC50) is 6.51.
`Cc1sc2nc(-c3cccs3)nc(N3CCN(C(=O)c4ccccc4)CC3)c2c1C`: the IC90 was above 10 µM. Further, for the setting “PBLUC_HILL_SLOPE 1.78, PBLUC_R_SQUARED 0.529, read-out: LUCIFERASE INFECTION ASSAY - IC50”, the pIC50 is 5.31.
As to `O=C(c1ccccc1)C1CCN(C(=O)/C=C/c2cccc(Cl)c2Cl)CC1`, the IC90 is above 10 µM. The pIC50 (PBLUC_HILL_SLOPE 1.75, PBLUC_R_SQUARED 0.122, read-out: LUCIFERASE INFECTION ASSAY - IC50) was below 5.00.
`CN1CCC2(CC1)CC(Nc1ccc(C(F)(F)F)cc1[N+](=O)[O-])c1ccccc1O2` (configuration not stated): the IC90 is above 10 µM. In addition, the pIC50 (PBLUC_HILL_SLOPE 1.75, PBLUC_R_SQUARED 0.131, read-out: LUCIFERASE INFECTION ASSAY - IC50) was below 5.00.
`N#C/C=C1\SCC(=O)N1CC(=O)c1ccc([N+](=O)[O-])cc1`: the IC90 is above 10 µM. The pIC50 (PBLUC_HILL_SLOPE 1.79, PBLUC_R_SQUARED 0.472, read-out: LUCIFERASE INFECTION ASSAY - IC50) was 5.28.
For `CCOC(=O)Cc1csc(SCC(=O)c2cc(C)n(-c3ccc4c(c3)OCO4)c2C)n1`, the IC90 is above 10 µM. The pIC50 (PBLUC_HILL_SLOPE 1.81, PBLUC_R_SQUARED 0.311, read-out: LUCIFERASE INFECTION ASSAY - IC50) was 5.33.
Regarding `COc1cc2[nH]c(CSc3nnc(-c4ccccc4F)n3C3CC3)nc(=O)c2cc1OC`, the IC90 is above 10 µM. Where the note is “PBLUC_HILL_SLOPE 1.81, PBLUC_R_SQUARED 0.0649, read-out: LUCIFERASE INFECTION ASSAY - IC50”, the pIC50 is below 5.00.
On to `Fc1ccccc1-n1cnnc1SC(c1ccccc1)c1ccccc1`, for which the IC90 is 1.93 µM. Moreover, the pIC50 (PBLUC_HILL_SLOPE 1.8, PBLUC_R_SQUARED 0.792, read-out: LUCIFERASE INFECTION ASSAY - IC50) is 6.24.
For the compound `Cc1ccc(CSc2nnc(OC(=O)N(C)C)n2-c2cccc(Cl)c2)cc1`, the IC90 is above 8.19 µM. Also, the pIC50 (PBLUC_HILL_SLOPE 1.76, PBLUC_R_SQUARED 0.153, read-out: LUCIFERASE INFECTION ASSAY - IC50) is 5.16.
As to `COc1ccc(-c2nc(-c3ccccc3)c(-c3ccccc3)[nH]2)cc1OCC(N)=O`, the IC90 was above 10 µM. For the setting “PBLUC_HILL_SLOPE 1.74, PBLUC_R_SQUARED 0.661, read-out: LUCIFERASE INFECTION ASSAY - IC50”, the pIC50 was 5.20.
On to `Fc1ccc(CNCC2(c3ccnc(-c4ccc(Cl)cc4)c3)CC2)cc1`, for which the IC90 was above 10 µM. The pIC50 (PBLUC_HILL_SLOPE 1.81, PBLUC_R_SQUARED 0.142, read-out: LUCIFERASE INFECTION ASSAY - IC50) was below 5.00.
`Cc1[nH]c(-c2ccccn2)nc(=O)c1CC(=O)OCc1nc2ccccc2s1`: the IC90 is above 10 µM. In addition, for the setting “PBLUC_HILL_SLOPE 1.8, PBLUC_R_SQUARED 0.582, read-out: LUCIFERASE INFECTION ASSAY - IC50”, the negative logarithm of the IC50 (pIC50) was 5.14.
As for `COc1cc(/C=C/c2ccc3ccccc3n2)ccc1OCC(=O)Nc1cccc(C(F)(F)F)c1`, the IC90 is above 10 µM. Also, the pIC50 (PBLUC_HILL_SLOPE 1.81, PBLUC_R_SQUARED 0.402, read-out: LUCIFERASE INFECTION ASSAY - IC50) is 5.09.
In the case of `CC1CCN(C(=O)c2csc(-c3ccco3)n2)c2ccccc2S1` (configuration not stated), the IC90 turned out to be 7.59 µM. Moreover, the pIC50 (PBLUC_HILL_SLOPE 1.74, PBLUC_R_SQUARED 0.579, read-out: LUCIFERASE INFECTION ASSAY - IC50) was 5.67.
`NC1=NC(=S)N=C(N)C1=C(CS(=O)(=O)c1ccccc1)c1ccccc1`: the IC90 was above 8.58 µM. In addition, for the setting “PBLUC_HILL_SLOPE 1.77, PBLUC_R_SQUARED 0.148, read-out: LUCIFERASE INFECTION ASSAY - IC50”, the pIC50 was below 5.07.
As for `CC(C)(C)c1ccc(COc2cccnc2N=CNO)cc1`, the IC90 is above 11 µM. The negative-log IC50 (pIC50) (PBLUC_HILL_SLOPE 1.74, PBLUC_R_SQUARED 0.362, read-out: LUCIFERASE INFECTION ASSAY - IC50) was 5.18.
With `CCOC(=O)c1sc2nc(C)nc(N(C)Cc3ccccc3)c2c1C`, the IC90 is above 10 µM. Also, where the note is “PBLUC_HILL_SLOPE 1.75, PBLUC_R_SQUARED 0.422, read-out: LUCIFERASE INFECTION ASSAY - IC50”, the pIC50 is 5.10.
In the case of `COc1ccc2c(=O)c(C(=O)N(C)Cc3ccc(F)c(F)c3)c[nH]c2c1`, the IC90 turned out to be 4.7 µM. Besides, the pIC50 (PBLUC_HILL_SLOPE 1.79, PBLUC_R_SQUARED 0.658, read-out: LUCIFERASE INFECTION ASSAY - IC50) is 5.86.
With `Cc1cccc(/C=C2\CC(C#N)(c3ccccc3)C/C(=C\c3cccc(C)c3)C2=O)c1` (configuration not stated), the IC90 was above 10 µM. For the same compound, where the note is “PBLUC_HILL_SLOPE 1.76, PBLUC_R_SQUARED 0.46, read-out: LUCIFERASE INFECTION ASSAY - IC50”, the pIC50 is 5.04.
On to `O=C(Nc1ccccc1Nc1cc(-c2ccccc2)nn1-c1ccccc1)c1ccc([N+](=O)[O-])cc1`, for which the IC90 was above 10 µM. The pIC50 (PBLUC_HILL_SLOPE 1.78, PBLUC_R_SQUARED 0.355, read-out: LUCIFERASE INFECTION ASSAY - IC50) is 5.06.
For the compound `N#CN=c1nc(/C=C/c2ccccc2Cl)[nH]c(-c2ccccc2O)n1`, the IC90 turned out to be 4.29 µM. For the same compound, the pIC50 (PBLUC_HILL_SLOPE 1.8, PBLUC_R_SQUARED 0.74, read-out: LUCIFERASE INFECTION ASSAY - IC50) was 5.90.
Turning to `CN(C)c1ccc(NC(=O)C2(C)CCCCN2C)cc1` (configuration not stated), the IC90 was above 12 µM. Where the note is “PBLUC_HILL_SLOPE 1.77, PBLUC_R_SQUARED 0.752, read-out: LUCIFERASE INFECTION ASSAY - IC50”, the pIC50 was 5.18.
Take `COc1ccccc1CN1CCN2C(=O)[C@@H](Cc3ccc(O)cc3)NC(=O)[C@H]2C1`: the IC90 is above 8.34 µM. For the same compound, the pIC50 (PBLUC_HILL_SLOPE 1.8, PBLUC_R_SQUARED 0.229, read-out: LUCIFERASE INFECTION ASSAY - IC50) is 5.35.
In the case of `Cc1nn(CC(=O)NNC(=O)CC23CC4CC(CC(C4)C2)C3)c(=O)c2ccccc12`, the IC90 is 6.96 µM. Further, for the setting “PBLUC_HILL_SLOPE 1.76, PBLUC_R_SQUARED 0.72, read-out: LUCIFERASE INFECTION ASSAY - IC50”, the negative-log IC50 (pIC50) was 5.70.
Take `COc1cccc(C(=O)Nc2ccc3nc(-c4cc(OC)c(OC)c(OC)c4)nn3c2)c1`: the IC90 stood at 7.64 µM. Besides, the pIC50 (PBLUC_HILL_SLOPE 1.78, PBLUC_R_SQUARED 0.523, read-out: LUCIFERASE INFECTION ASSAY - IC50) was 5.65.
With `Cc1cnc(-c2nc(-c3ccccc3)c3n2CCN(Cc2ccc(C4CCCCO4)s2)C3)cn1` (configuration not stated), the IC90 was above 7 µM. The pIC50 (PBLUC_HILL_SLOPE 1.74, PBLUC_R_SQUARED 0.822, read-out: LUCIFERASE INFECTION ASSAY - IC50) is 5.44.
Consider `Cc1noc(C)c1C(=O)OCC(=O)c1cc(C)n(-c2ccccc2F)c1C`, for which the IC90 is above 10 µM. Moreover, the pIC50 (PBLUC_HILL_SLOPE 1.73, PBLUC_R_SQUARED 0.622, read-out: LUCIFERASE INFECTION ASSAY - IC50) is 5.38.
Take `c1ccc(-c2cc3c(Oc4ccc(-n5ccnc5)cc4)ncnc3s2)cc1`: the IC90 is above 10 µM. For the same compound, under “PBLUC_HILL_SLOPE 1.81, PBLUC_R_SQUARED 0.315, read-out: LUCIFERASE INFECTION ASSAY - IC50”, the pIC50 is 5.16.
As for `COc1ncccc1CNC(=O)C1=COCCO1`, the IC90 was above 10 µM. Moreover, for the setting “PBLUC_HILL_SLOPE 1.77, PBLUC_R_SQUARED 0.251, read-out: LUCIFERASE INFECTION ASSAY - IC50”, the pIC50 is 5.23.
